According to patent publication US20180141911A1, “Quinoline Derivatives for Diagnosis and Treatment of Alzheimer's Disease” (Northeastern University, priority 2015, published 2018):
Each block holds one molecule with its values, some of them ahead of it.

Tests used:
[1] = normal subjects, nonhuman primates; cited from earlier work
tau and Aβ aggregates = conditions: post-mortem AD brain tissues; cited from earlier work

melting point: 120 °C
SMILES: Brc1cnc2c(OCc3ccccc3)cccc2c1

SMILES: Oc1cccc2ccc([18F])nc12 [[^18F]-CABS13, [^18F]-2-fluoro-8-hydroxyquinoline]
brain penetration [1]: poor brain penetration
conversion to a polar metabolite [1]: rapid, high conversion to a polar metabolite

SMILES: Oc1cccc2cccnc12 [8-Hydroxyquinoline]
binding to tau and Aβ aggregates (tau and Aβ aggregates): bind to both tau and Aβ aggregates

SMILES: Oc1c(I)cc(Cl)c2cccnc12 [clioquinol]
binding to tau and Aβ aggregates (tau and Aβ aggregates): bind to both tau and Aβ aggregates
